Test results reported in the supplement of paper PMC11208160.

test: recombinant barcode read abundance after kanamycin selection (control-corrected) (log10(CPM+1)); higher = more efficient recombination; sequences stand for … in AGTGCAGAGAAAATCGGCCAGTTTTCTCTGCCTGCAGTCCGCATGCCGT…AGATTTATGCAGCGGACTGCCTTTCTCCCAAAGTGATAAACCGGACAGTATCATGGACCGGTTTTCCCGGTAATCCGTATTTGCAAGGTTGGTTTCACT; site = the 11-nt target
Outline: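 Oligos holding a promoter, target, barcode and the J23119-driven first 104 bases of the bridge RNA were Gibson-cloned into a vector that supplied the other 73 bp plus a T7-inducible recombinase. This library was co-electroporated with a donor plasmid into E. coli. Two replicates went on chloramphenicol/ampicillin LB agar (control) and two on chloramphenicol/ampicillin/kanamycin with 0.1 mM IPTG. Recombination efficiency is read from averaged, control-corrected barcode counts per million at recombinant junctions, reported as log10(CPM+1).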
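Also: IS621 recombinase and bridge RNA in Escherichia coli cells.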

In order of rising “recombinant barcode read abundance (log10)” value:
1. ATGATTCCTTGGGTTCTAACCTGTTGCCT (site AAGATTCCTAG)  0
2. ATTAGTGCTTGGGTTCTAACCTGTTGCCT (site ACTAGTGCTAG)  0
3. ATCTTAACTTGGGTTCTAACCTGTTGCCT (site ATCTTATCTAG)  0.00981
4. ATCTTGTCTTGGGTTCTAACCTGTTGCCT (site ATCTTGTCTCG)  0.0162
5. ATGATTCCTTGGGTTCTAACCTGTTGCCT (site AGGATTCCTAG)  0.0244
6. ATTACCTCTTGGGTTCTAACCTGTTGCCT (site AATACCTCTAG)  0.0245
7. ATTGGATCTTGGGTTCTAACCTGTTGCCT (site ATTGGCTCTAG)  0.0247
8. ATTAGGACTTGGGTTCTAACCTGTTGCGA (site AATAGGACTGC)  0.03
9. ATGGGCCCTTGGGTTCTAACCTGTTGCTC (site ATGGGCCCTTA)  0.0312
10. ATTTGCCCTTGGGTTCTAACCTGTTGCCT (site AGTTGCCCTAG)  0.0335
11. ATGGCGGCTTGGGTTCTAACCTGTTGCCT (site GTGGAGGCTAG)  0.0374
12. ATTAGTGCTTGGGTTCTAACCTGTTGCCT (site ATTAGTGCTAG)  0.0389
13. ATGGACCCTTGGGTTCTAACCTGTTGCTC (site TATCGGGCTCT)  0.0488
14. ATGCCCACTTGGGTTCTAACCTGTTGCCT (site ATGCCGACTAG)  0.049
15. ATGATTCCTTGGGTTCTAACCTGTTGCCT (site ACGATTCCTAG)  0.0545
16. ATTCACACTTGGGTTCTAACCTGTTGCGT (site CGATTAGCTCG)  0.0576
17. ATGTCTACTTGGGTTCTAACCTGTTGCCA (site ATAACTACTTG)  0.0597
18. CAAAACTCTTGGGTTCTAACCTGTTGCTT (site TCCCCGGCTCC)  0.0614
19. ATGTCTACTTGGGTTCTAACCTGTTGCCA (site ATGTCTACTTG)  0.0628
20. ATGCCCACTTGGGTTCTAACCTGTTGCCT (site ATGCCAACTAG)  0.0683
21. ATTACCTCTTGGGTTCTAACCTGTTGCCT (site AGTACCTCTAG)  0.0695
22. ATGCGAGCTTGGGTTCTAACCTGTTGCAG (site ATGCGAGCTCC)  0.0805
23. ATTACCTCTTGGGTTCTAACCTGTTGCCT (site ACTACCTCTAG)  0.0829
24. ATGGGTCCTTGGGTTCTAACCTGTTGCCT (site ATCGGTCCTAG)  0.0834
25. ATTGGATCTTGGGTTCTAACCTGTTGCCT (site ATTGGGTCTAG)  0.0971
26. ATTTGCCCTTGGGTTCTAACCTGTTGCCT (site ACTTGCCCTAG)  0.0987
27. ATCTGGGCTTGGGTTCTAACCTGTTGCCT (site ATCTGGGCTAG)  0.0992
28. ATGCCCACTTGGGTTCTAACCTGTTGCCT (site ATGCCTACTAG)  0.106
29. ATTAGTGCTTGGGTTCTAACCTGTTGCCT (site AGTAGTGCTAG)  0.118
30. ATTTGCCCTTGGGTTCTAACCTGTTGCCT (site ATTTGCCCTAG)  0.122
31. ATCTGGGCTTGGGTTCTAACCTGTTGCCT (site AGCTGGGCTAG)  0.123
32. ATGACTACTTGGGTTCTAACCTGTTGCTA (site ATGACTACTGA)  0.136
33. ATGATTGCTTGGGTTCTAACCTGTTGCCT (site ATGAATGCTAG)  0.149
34. ATTTCCACTTGGGTTCTAACCTGTTGCCT (site AAGTCCACTAG)  0.176
35. ATCTTAACTTGGGTTCTAACCTGTTGCCT (site ATCTTAACTAG)  0.183
36. ATGGGCACTTGGGTTCTAACCTGTTGCCT (site ATAGGAACTAG)  0.198
37. ATTGGATCTTGGGTTCTAACCTGTTGCCT (site ATTGGTTCTAG)  0.205
38. ATGGATACTTGGGTTCTAACCTGTTGCGT (site AGGGATACTAC)  0.219
39. ATTTGCCCTTGGGTTCTAACCTGTTGCCT (site AATTGCCCTAG)  0.222
40. ATGGTGGCTTGGGTTCTAACCTGTTGCCT (site ATGGTGTCTAG)  0.241
41. ATGACCGCTTGGGTTCTAACCTGTTGCCA (site AGGACCACTTG)  0.246
42. ATTACTTCTTGGGTTCTAACCTGTTGCTT (site ATTACTTCTAA)  0.282
43. ATGGTGGCTTGGGTTCTAACCTGTTGCCT (site ATGGTGCCTAG)  0.288
44. ATCTTAACTTGGGTTCTAACCTGTTGCCT (site ATCTTAGCTAG)  0.337
45. ATGGGTCCTTGGGTTCTAACCTGTTGCCT (site ATTGGTCCTAG)  0.356
46. ATGAGAACTTGGGTTCTAACCTGTTGCCT (site ATGAGAACTCG)  0.361
47. CAAAAGGCTTGGGTTCTAACCTGTTGCAG (site CAAAGGGCTCT)  0.386
48. ATTGGATCTTGGGTTCTAACCTGTTGCCT (site ATTGGATCTAG)  0.391
49. ATTACTTCTTGGGTTCTAACCTGTTGCTT (site GAGTTCCCTGG)  0.406
50. ATTTCCACTTGGGTTCTAACCTGTTGCCT (site ATTTCCACTAG)  0.433
51. ATGACTACTTGGGTTCTAACCTGTTGCTA (site ATGACTACTTA)  0.456
52. ATGCGAGCTTGGGTTCTAACCTGTTGCAG (site ATGCGAGCTCG)  0.549
53. CAAAACTCTTGGGTTCTAACCTGTTGCTT (site CAAAACTCTAA)  0.554
54. ATTAGGACTTGGGTTCTAACCTGTTGCAG (site ATTAGGACTCA)  0.579
55. ATTAGTGCTTGGGTTCTAACCTGTTGCCT (site AATAGTGCTAG)  0.605
56. ATGATTCCTTGGGTTCTAACCTGTTGCCT (site ATGATTCCTAG)  0.62
57. ATGGGCACTTGGGTTCTAACCTGTTGCCT (site ATGGGCACTAG)  0.639
58. ATCTTAACTTGGGTTCTAACCTGTTGCCT (site ATCTTACCTAG)  0.643
59. ATGCGAGCTTGGGTTCTAACCTGTTGCAG (site ATGCGAGCTCA)  0.791
60. ATCTTGTCTTGGGTTCTAACCTGTTGCCT (site ATCTTGTCTAG)  0.977
61. ATGGGCCCTTGGGTTCTAACCTGTTGCTC (site ATGGGCCCTCA)  1.04
62. ATGAAGACTTGGGTTCTAACCTGTTGCCT (site ATCAAGACTAG)  1.07
63. ATTACCTCTTGGGTTCTAACCTGTTGCCT (site ATTACCTCTAG)  1.1
64. ATGAAGACTTGGGTTCTAACCTGTTGCCT (site ATTAAGACTAG)  1.12
65. ATGGTGGCTTGGGTTCTAACCTGTTGCCT (site ATGGTGACTAG)  1.17
66. ATGATTGCTTGGGTTCTAACCTGTTGCCT (site ATGATTGCTAG)  1.18
67. ATGACCGCTTGGGTTCTAACCTGTTGCCA (site ATGACCGCTTG)  1.28
68. ATGCCCACTTGGGTTCTAACCTGTTGCCT (site ATGCCCACTAG)  1.33
69. ATGGGCCCTTGGGTTCTAACCTGTTGCTC (site ATGGGCCCTAA)  1.36
70. ATGAGAACTTGGGTTCTAACCTGTTGCCT (site ATGAGAACTAG)  1.5
71. ATGGCGGCTTGGGTTCTAACCTGTTGCCT (site ATGGCGGCTAG)  1.69
72. CAAAAGGCTTGGGTTCTAACCTGTTGCAG (site CAAAAGGCTCT)  1.7
73. ATGGTGGCTTGGGTTCTAACCTGTTGCCT (site ATGGTGGCTAG)  1.81
74. ATGCGAGCTTGGGTTCTAACCTGTTGCAG (site ATGCGAGCTCT)  1.87
75. ATGGACCCTTGGGTTCTAACCTGTTGCTC (site ATGGACCCTGA)  1.93
76. ATGGGTCCTTGGGTTCTAACCTGTTGCCT (site ATAGGTCCTAG)  2.07
77. ATGAAGACTTGGGTTCTAACCTGTTGCCT (site ATAAAGACTAG)  2.09
78. ATGGGCCCTTGGGTTCTAACCTGTTGCTC (site ATGGGCCCTGA)  2.09
79. ATTAGGACTTGGGTTCTAACCTGTTGCAG (site ATTAGGACTCT)  2.1
80. ATGAAGACTTGGGTTCTAACCTGTTGCCT (site ATGAAGACTAG)  2.13
81. ATTCACACTTGGGTTCTAACCTGTTGCGT (site ATTCACACTAC)  2.16
82. ATTAGGACTTGGGTTCTAACCTGTTGCGA (site ATTAGGACTTC)  2.3
83. ATGGATACTTGGGTTCTAACCTGTTGCGT (site ATGGATACTAC)  2.51
84. ATGGGTCCTTGGGTTCTAACCTGTTGCCT (site ATGGGTCCTAG)  2.55
85. ATGGTCCCTTGGGTTCTAACCTGTTGCCT (site ATGGTCCCTAG)  3.16
86. ATGGTCCCTTGGGTTCTAACCTGTTGCCT (site ATAGTCCCTAG)  3.2
